Measurements taken from publication PMC3904841, “Crystal Structures of HIV-1 gp120 Envelope Glycoprotein in Complex with NBD Analogues That Target the CD4-Binding Site” (PLoS ONE, 2014).
Like-named read-outs stand apart in the source and are kept apart here.

What was measured:
HIV-1YU2 virus = details: cited from earlier work; for Activation of Viral Infectivity: relative, CD4 negative Cf2Th-CCR5 cells; for activation of viral infectivity in CD4-negative cells (in words): summary of Table S1
[1] = system: full-length gp120 variants possessing the Ser 375 to Trp mutation (S375W); design: method as in PMID 19000821; details: ref [21]; cited from earlier work
HIV-1 YU2 virus = details: cited from earlier work; for IC50: Cf2Th-CD4/CCR5 cells infected with HIV-1 YU2 virus
[2] = system: Clade A/E93TH057 gp120 coree; assay: SPR binding of gp120 coree to immobilized NBD-556 and sCD4; design: species or system HIV-1; details: ligand on CM5 chip, His 375
Excerpt: (§1) Our structures reveal that Region I and II of the NBD congeners fit deeply within the Phe 43 cavity. As such, mutations that alter the shape of the cavity will also affect binding of the small molecules to gp120. One residue in close proximity to Region I and II of the NBD congeners is Ser 375 (vide supra). […] In several group O, N, or M HIV-1 viruses, Ser 375 of gp120 is replaced with either Met or His. […] However, the rate of Ser 375 to Trp mutation may be counterbalanced because the same mutation is also detrimental to the viruses by predisposing gp120 to adopt the CD4-bound conformation, a state prone to inactivation. Overall, the Phe 43 cavity remains an indispensable target for small molecule inhibitors.
(§2) Figure 8 NBD analogues are unable to bind Ser 375 variants of gp120s. […] Ser 375 was shown in the NBD-557 bound cavity. […] NBD-557 modeled into the Phe 43 cavity of clade A/E gp120 clashes with His 375. […] Met 375 modeled into NBD-557-bound YU2 gp120 clashes with NBD-557. […] NBD-557 clashes with Trp 375 in the Phe 43 cavity.

[3] = system: Clade AKER2008 gp120 coree; assay: as above; design: species or system HIV-1; details: ligand on CM5 chip, Met 375
Excerpt: as §1, §2

[4] = system: Clade CRF34_1OUR2478P gp120 coree; assay: as above; design: species or system HIV-1; details: ligand on CM5 chip, Trp 375
Excerpt: as §1, §2

[5] = system: amphotropic murine leukemia virus (A-MLV); details: cells infected with A-MLV, cited from earlier work
Cf2Th-CD4-CCR5 cells = system: Cf2Th-CD4-CCR5 cells; design: method as in PMID 22497421; details: 100 µM; ref [24]; cited from earlier work
gp120 = details: cited from earlier work; for Kd: binding affinity for gp120
gp120 coremin = assay: SPR enhancement of gp120 coremin binding to 17b antibody; design: species or system HIV-1; details: 100 nM gp120, 0–100 µM compound, 17b captured on CM5 chip
Excerpt: A major undesired trait of NBD analogues as HIV-1 entry inhibitors is their capacity to activate viral infectivity in CD4-negative cells. To understand the underlying mechanisms of activation of HIV-1 infectivity in CD4-negative cells in the presence of select NBD analogues, we asked if the capacity of the four analogues to induce gp120 conformational change to the CD4-bound state might account for observed differences in viral infectivity. To address this question, we employed surface-plasmon resonance (SPR) and measured the capacity of NBD-557, (±)-AS-II-37, (±)-AS-I-261, (±)-MAE-II-167, and (±)-MAE-II-188 to increase the binding affinity of either the minimal core (coremin) or full-length gp120 for the 17b antibody, which recognizes gp120 in the CD4-bound conformation. We chose gp120 coremin over coree for SPR measurement because the coree is already in the CD4 bound conformation, and the effect of these small molecules on 17b-gp120 interaction is undetectable.
Figure 7 NBD analogue binding to gp120 enhances 17b-gp120 interaction. (A–D) 100 nM of gp120 coremin or full-length gp120 in the presence of 0–100 µM of NBD analogues was passed over 17b antibody immobilized on a CM5 chip. The binding of gp120 to 17b increased, in a concentration dependent manner, in response to treatment with the NBD analogues.
SPR experiments were performed using Biacore T100 (GE Healthcare) at 25°C. […] HBS-EP buffer (GE Healthcare) was used for the running buffer. A capture method was used to monitor the enhancement of gp120 binding to 17b by NBD-analogues. […] The running buffer contained 20 mM HEPES, pH 7.4, 150 mM NaCl, 0.05% P-20, and 5% DMSO.

[6] = system: laboratory-adapted HIV-1IIIB strain; design: method as in Zhao et al. [18]; details: printed in the HIV-1 YU2 column, but determined in laboratory-adapted HIV-1IIIB strain; ref Zhao et al. [18]; cited from earlier work
[7] = system: virus expressing the S375W Env gp120; design: method as in PMID 19000821; details: virus expressing S375W Env gp120 incubated with target cells; ref [21]; cited from earlier work
[8] = HIV-1YU2, normalized to 1 (NBD-556), ref Madani et al. [21]
[9] = HIV-1YU2, normalized to N-(4-Chloro-3-Fluorophenyl)-N'-(1,2,2,6,6-Pentamethylpiperidin-4-yl)ethanediamide, ref [24,27]
[10] = HIV-1YU2, normalized to 2 (NBD-557), ref [24,27]

Compound	IC50 (HIV-1 YU2 virus; ref [24,27])	IC50 ([5]; ref [24,27])	Kd (gp120; ref [24,27])	Activation of Viral Infectivity (HIV-1YU2 virus; [10])	enhancement of gp120 coremin binding to 17b (gp120 coremin)	also measured
CC1(C)CC(NC(=O)C(=O)Nc2ccc(Cl)cc2)CC(C)(C)N1 [NBD-556]						Activation of Viral Infectivity (HIV-1YU2 virus; [8]): 1.0 ± 0.1; binding to S375W full-length gp120 [1]: inefficiently bind; IC50 (HIV-1 YU2 virus; ref Madani et al. [21]): > 100 µM; binding of gp120 coree to immobilized ligand [2]: does not show detectable binding; binding of gp120 coree to immobilized ligand [3]: does not bind; binding of gp120 coree to immobilized ligand [4]: does not bind; IC50 ([5]; ref Madani et al. [21]): > 100 µM
N=C(N)N[C@H]1Cc2ccccc2[C@@H]1NC(=O)C(=O)Nc1ccc(Cl)c(F)c1 [DMJ-I-228]	22.9 µM	> 100 µM	0.25 µM			effect on cell growth dynamics (cytotoxicity) (Cf2Th-CD4-CCR5 cells): does not alter the cell growth dynamics; Activation of Viral Infectivity (HIV-1YU2 virus; [9]): 0.0; activation of viral infectivity in CD4-negative cells (in words) (HIV-1YU2 virus; ref [24,27]): did not
O=C(NCC1NCCc2ccccc21)C(=O)Nc1ccc(Cl)c(F)c1 (centres unmarked) [AS-II-37]	50.4 µM	> 100 µM	1.2 µM	0.6	somewhat reduced enhancement	
O=C(NC[C@@]12CCC[C@@H]1CNC2)C(=O)Nc1ccc(Cl)c(F)c1 (relative stereo) [MAE-II-167]	68.3 µM	93.1 µM	3.1 µM	0.0	equally enhanced	
CC1(C)CC(NC(=O)C(=O)Nc2ccc(Cl)c(F)c2)CC(C)(C)N1 [JRC-II-191]						Activation of Viral Infectivity (HIV-1YU2 virus; [8]): 1.9 ± 0.2; IC50 (HIV-1 YU2 virus; ref Madani et al. [21]): 54.4 µM; inhibition of HIV-1YU2 infection of cells expressing CD4 and CCR5 (HIV-1 YU2 virus; compared with NBD-556, ref [21], [27]): more potently than NBD-556; IC50 ([5]; ref Madani et al. [21]): > 100 µM; enhancement of binding affinity for YU2 gp120 (gp120; para-chloro, meta-fluoro aromatic ring, compared with NBD-556, ref [21], [27]): 5 fold
CC1(C)CC(NC(=O)C(=O)Nc2ccc(Br)cc2)CC(C)(C)N1 [NBD-557, reference compound]						IC50 [6]: 3.08 µM; Activation of Viral Infectivity (HIV-1YU2 virus; [8]): 0.9 ± 0.4; Kd (gp120; ref Madani et al. [21]): 2.2 µM; enhancement of CD4-independent viral entry [7]: does not enhance
N=C(N)NC[C@H]1Cc2ccccc2[C@@H]1NC(=O)C(=O)Nc1ccc(Cl)c(F)c1 [DMJ-II-121]	2.3 µM	> 100 µM	0.11 µM			Activation of Viral Infectivity (HIV-1YU2 virus; HIV-1YU2, normalized to 1 (NBD-556), ref [24,27]): 0.0
N=C(N)N[C@@H]1Cc2ccccc2[C@H]1NC(=O)C(=O)Nc1ccc(Cl)c(F)c1 [AWS-I-169]	21.3 µM	> 100 µM	0.3 µM			Activation of Viral Infectivity (HIV-1YU2 virus; [9]): 0.0
O=C(NCC1CCN(C2CC2)C1)C(=O)Nc1ccc(Cl)c(F)c1 (centres unmarked) [MAE-II-188]		> 100 µM		0.3	equally enhanced	
COc1ccnc2[nH]cc(C(=O)C(=O)N3CCN(C(=O)c4ccccc4)C[C@H]3C)c12 [BMS-806, reference compound]					did not enhance	
CC1(C)O[C@@H](CN)[C@H](CNC(=O)C(=O)Nc2ccc(Cl)c(F)c2)O1 (relative stereo) [AS-I-261]	76.6 µM	94.4 µM	2.6 µM	1.5	equally enhanced	activation of viral infectivity in CD4-negative cells (in words) (HIV-1YU2 virus; ref [24,27]): activated viral infectivity
